{
  "source": "patent US20240033349A1",
  "about": "“VACCINE AND METHOD OF PROTECTION AGAINST CORONAVIRUS INFECTION” (priority 2020, published 2024)",
  "key": {"[1]": {"test_system": "virus of Venezuelan equine encephalomyelitis, strain Trinidad", "design": "species or system mice", "conditions": "mouse, in vivo"}, "SARS-Cov-2": {"test_system": "SARS-Cov-2", "conditions": "human, in vivo"}, "[2]": {"test_system": "new coronavirus infection COVID-19", "conditions": "human, in vivo"}, "[3]": {"conditions": "clinical examples, unlike other phthalhydrazide derivatives"}, "[4]": {"test_system": "SARS-Cov virus (strain SARS-Covktp3)", "design": "species or system mice", "conditions": "mouse, in vivo"}, "[5]": {"test_system": "MERS-CovN3/Jordanp3 virus", "design": "species or system mice", "conditions": "mouse, in vivo"}},
  "data": [
    {"smiles": "Nc1cccc2c(=O)[nH][nH]c(=O)c12.[Na]", "note": "[Tamerit, 5-amino-1,2,3,4-tetrahydrophthalazine-1,4-dione sodium salt]", "values": [
      {"measurement": "Survival rate higher than in animals immunized only with VVE", "setting": "[1]", "result": "25-30%"},
      {"measurement": "Survival rate of infected mice depending on the infecting dose", "setting": "[1]", "result": "60-100%"},
      {"measurement": "Control MSCT of the chest organs", "setting": "SARS-Cov-2", "result": "pronounced positive dynamics"},
      {"measurement": "Dynamics of clinical and laboratory data", "setting": "SARS-Cov-2", "result": "rapid positive dynamics of clinical and laboratory data"},
      {"measurement": "MSCT grade of lung lesion", "setting": "SARS-Cov-2", "result": "CT-2."},
      {"measurement": "SARS-Cov-2 RNA test", "setting": "SARS-Cov-2", "result": "not detected."},
      {"measurement": "ferritin", "setting": "SARS-Cov-2", "result": "ferritin-973.3 ng/ml"},
      {"measurement": "interleukin-6", "setting": "SARS-Cov-2", "result": "924.6 pg/mL,"},
      {"measurement": "Development of early pulmonary fibrosis by computed tomography", "setting": "[2]", "result": "not observed in any patient"},
      {"measurement": "Indications for artificial lung ventilation", "setting": "[2]", "result": "none of the observed patients treated with Tamerit had indications for artificial lung ventilation"},
      {"measurement": "Infection with COVID-19 after contact with the patients", "setting": "[2]", "result": "No one of them got infected"},
      {"measurement": "Reduction of duration of clinical manifestations of the acute phase of the disease", "setting": "[2]", "result": "1.5-2 weeks"},
      {"measurement": "Time to complete regression of symptoms", "setting": "[2]", "result": "3 to 4", "unit": "days"},
      {"measurement": "Toxic, cumulative, mutagenic or teratogenic effects", "setting": "[3]", "result": "no toxic, cumulative, mutagenic or teratogenic effects"},
      {"measurement": "Protection effect", "setting": "[4]", "result": 50, "unit": "%"},
      {"measurement": "Protection effect", "setting": "[5]", "result": 50, "unit": "%"}
    ]}
  ]
}
